# Data from patent US20220280594A1, “APPLICATION OF POLYPEPTIDE OR DERIVATIVE THEREOF” (CHENGDU HUITAI BIOMEDICINE CO., LTD., priority 2019, published 2022).
# Ends that are not written are not given here. PEG = not defined here
# Assays:
# Format in all cases: cell-based
# [1] = test system: human liver cancer cells (HepG2); experiment: scratch assay, migration of HepG2 cells; details: HepG2, 10 μM, 48 hours; control group 71.01 ± 6.63
# Method in brief: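 HepG2 monolayers scratched, then cultured 48 h in 2% FBS medium with test polypeptides at 10 μM versus PBS control, triplicate wells. Migration rate (%) computed from original versus current scratch width in images.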
# [2] = test system: human pharyngeal squamous-cell carcinoma cells (Fadu); experiment: scratch assay, migration of Fadu cells; details: 10 μM, 48 hours, control group 28.76 ± 4.08
# Method in brief: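 Confluent Fadu monolayers scratched, then cultured 48 h with 10 μM polypeptide in medium with 2% FBS; PBS control, triplicate wells. Migration rate (%) = (original − current scratch width)/original width × 100, from ≥3 images per well.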
# [3] = test system: human breast cancer cells (MDA-MB-453); experiment: scratch assay, migration of MDA-MB-453 cells; details: MDA-MB-453, 10 μM, 48 hours; control group 32.42 ± 2.04
# Method in brief: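 Confluent MDA-MB-453 monolayers were scratched, then treated with peptide at 10 μM in 2% FBS medium for 48 h, with a PBS control and triplicate wells. Migration rate (%) was taken as (original − current scratch width)/original width ×100 from images.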
# [4] = test system: human oral epidermoid carcinoma KB cells; experiment: scratch assay, migration of KB cells; details: 10 μM, 48 hours, control group 54.03 ± 4.21
# Method in brief: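 Monolayers of KB cells were scratched, washed with PBS, then cultured 48 hours in 2% FBS medium containing test polypeptide (10 μM) or PBS control, in triplicate wells. From images, migration rate (%) = (original − current scratch width)/original width × 100.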
# [5] = test system: human pancreatic cancer cells (PANC-1); experiment: transwell migration assay, PANC-1 cells; details: PANC-1 transwell migration, 10 μM, 24 hours; control group 360 ± 60
# Method in brief: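 Serum-free PANC-1 cells placed in the upper transwell chamber with complete medium below; after 4-5 h, peptide added to the upper chamber at a final 10 μM. Migration ran 24 h at 37 °C; cells on the membrane underside were methanol-fixed, crystal violet-stained and counted by microscopy.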
# [6] = test system: human lung squamous carcinoma cells (NCI-H226); experiment: scratch assay, migration of NCI-H226 cells; details: NCI-H226, 10 μM, 48 hours; control group 65.31 ± 3.19
# Method in brief: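 A straight scratch was made in confluent NCI-H226 monolayers (1-2×10^5 cells/well). Cells were then kept 48 h in 2% FBS medium with 10 μM polypeptide or PBS control, triplicate wells. Migration rate (%) = (original − current scratch width)/original width ×100, from imaged scratch widths.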
# [7] = test system: human prostate cancer cells (22RV1); experiment: scratch assay, migration of 22RV1 cells; details: 22RV1, 10 μM, 48 hours; control group 25.41 ± 5.01
# Method in brief: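 22RV1 monolayers (seeded 1-2×10^5 cells/well) were scratched, washed, then given 2% FBS medium with 10 μM polypeptide or PBS, triplicate wells, for 48 h. Migration rate (%) = (original − current scratch width)/original width ×100, from ≥3 images per well.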
# [8] = test system: human breast cancer cells (MCF-7); experiment: scratch assay, migration of MCF-7 cells; details: MCF-7, 10 μM, 48 hours; control group 30.97 ± 1.79
# Method in brief: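 MCF-7 monolayers scratched, then cultured 48 hours in 2% FBS medium with test peptide at 10 μM versus PBS control, triplicate wells. Migration rate (%) = (original − current scratch width)/original width × 100, measured from images.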
Substance,"Migration rate (%) (mean ± SD, P) [1]","Migration rate (%) (mean ± SD, P) [2]","Migration rate (%) (mean ± SD, P) [3]","Migration rate (%) (mean ± SD, P) [4]","Number of cells (mean ± SD, P), migrated cells [5]","Migration rate (%) (mean ± SD, P) [6]","Migration rate (%) (mean ± SD, P) [7]","Migration rate (%) (mean ± SD, P) [8]"
"N33: SEQ ID NO: 1 with deletion of positions 1-5, addition of one amino acid and PEG modification at the carboxyl terminal (LAKENVTQDAEDNC-{PEG}; reading uncertain)","19.27 ± 8.14,*** %","10.28 ± 2.06,** %","10.76 ± 4.13,*** %","6.01 ± 1.62,*** %","178 ± 14,***","40.73 ± 4.87,** %","10.03 ± 2.15,* %","18.97 ± 2.44,* %"
"N34: SEQ ID NO: 1 with A15R, addition of one amino acid at the carboxyl terminal, PEG modification at the amino terminal ({PEG}-YRVRFLAKENVTQDREDNC; reading uncertain)","18.58 ± 7.87,*** %","7.38 ± 2.85,*** %","9.57 ± 3.68,*** %","12.88 ± 1.71,*** %","248 ± 19,*","36.53 ± 4.35,** %","5.00 ± 2.29,** %","15.23 ± 4.39,* %"
"N35: SEQ ID NO: 1 with A15R, addition of one amino acid and PEG modification at the carboxyl terminal (YRVRFLAKENVTQDREDNC-{PEG}; reading uncertain)","16.83 ± 7.92,*** %","8.71 ± 1.79,*** %","8.46 ± 2.77,*** %","6.07 ± 2.30,*** %","151 ± 10,***","42.47 ± 5.12,** %","7.13 ± 2.23,** %","17.38 ± 2.55,* %"
N37: SEQ ID NO: 1 with addition of two amino acids to the carboxyl terminal and PEG modification at the amino terminal ({PEG}-YRVRFLAKENVTQDAEDNCT; reading uncertain),"13.81 ± 6.14,*** %","15.89 ± 3.88,* %","15.13 ± 3.55,** %","24.48 ± 2.51,* %","113 ± 11,***","11.33 ± 9.49,*** %","4.86 ± 1.91,** %","8.64 ± 3.76,** %"
N38: SEQ ID NO: 1 with one amino acid added at each terminal and PEG modification at the carboxyl terminal (FYRVRFLAKENVTQDAEDNC-{PEG}; reading uncertain),"12.81 ± 7.32,*** %","18.18 ± 3.61,* %","12.46 ± 2.5,*** %","15.57 ± 3.65,* %","116 ± 27,***","47.66 ± 6.39,* %","7.73 ± 1.58,** %","6.93 ± 2.24,** %"
N39: SEQ ID NO: 1 with addition of two amino acids and PEG modification at the carboxyl terminal (YRVRFLAKENVTQDAEDNTC-{PEG}; reading uncertain),"15.73 ± 6.79,*** %","18.48 ± 5.74,* %","11.02 ± 6.8,** %","9.21 ± 4.20,*** %","262 ± 13,*","21.82 ± 5.54,*** %","4.21 ± 2.81,** %","7.74 ± 2.46,** %"
"N40: SEQ ID NO: 1 with deletion of positions 1-5 and 15-18, PEG at the amino terminal, two amino acids added at the carboxyl terminal ({PEG}-LAKENVTQDRC; reading uncertain)","32.55 ± 4.09,** %","10.25 ± 2.76,** %","13.88 ± 6.51,** %","6.47 ± 4.39,*** %","264 ± 12,*","17.00 ± 6.49,*** %","6.65 ± 2.54,** %","4.36 ± 1.35,*** %"
"N41: SEQ ID NO: 1 with addition of two amino acids at the amino terminal, deletion of position 18, PEG at the carboxyl terminal (FRYRVRFLAKENVTQDAED-{PEG}; reading uncertain)","25.59 ± 6.26,*** %","12.00 ± 4.73,** %","11.5 ± 3.23,*** %","20.01 ± 2.07,** %","248 ± 22,*","15.30 ± 8.69,*** %","7.83 ± 1.84,** %","5.19 ± 2.94,*** %"
"N42: SEQ ID NO: 1 with deletion of positions 1-5 and 15-18, PEG at the amino terminal, one amino acid added at the carboxyl terminal ({PEG}-LAKENVTQDR; reading uncertain)","30.92 ± 4.57,** %","18.63 ± 2.79,* %","14.12 ± 9.89,** %","8.92 ± 2.65,*** %","236 ± 14,**","17.46 ± 6.33,*** %","5.89 ± 1.02,** %","10.04 ± 2.28,** %"
"N43: SEQ ID NO: 1 with addition of one amino acid at the amino terminal, deletion of position 18, PEG at the carboxyl terminal (RYRVRFLAKENVTQDAED-{PEG}; reading uncertain)","26.54 ± 7.89,** %","10.04 ± 2.50,** %","10.38 ± 6.04,** %","11.22 ± 1.74,*** %","157 ± 15,***","16.38 ± 7.71,*** %","6.57 ± 1.35,** %","7.83 ± 3.42,** %"
"N45: SEQ ID NO: 1 with V11R, deletion of positions 1-5 and 15-18, PEG modification at the carboxyl terminal (LAKENRTQD-{PEG}; reading uncertain)","52.98 ± 4.08,* %","9.34 ± 2.86,*** %","5.53 ± 2.87,*** %","8.79 ± 2.28,*** %","135 ± 10,***","23.76 ± 5.38,*** %","11.63 ± 2.82,* %","17.06 ± 2.87,* %"
"N47: SEQ ID NO: 1 with N18R, deletion of positions 1-2, one amino acid added and PEG at the carboxyl terminal (VRFLAKENVTQDAEDRC-{PEG}; reading uncertain)","54.67 ± 7.02,* %","10.27 ± 4.61,*** %","14.66 ± 2.51,*** %","8.82 ± 1.89,*** %","135 ± 10,***","53.86 ± 3.61,* %","5.92 ± 2.53,** %","18.41 ± 2.35,* %"
